Experimental findings from patent USRE37886E1, “1-(1,2-Disubstituted piperidinyl)-4-substituted piperazine derivatives” (Janssen Pharmaceuticals, N.V., priority 1995, dated 2002) are described below.

SMILES strings stand for the structures. pIC50: −log10 of the molar value. Some results are limits rather than exact numbers.

Assay [1] deals with substance-P induced relaxation of the pig coronary arteries. As to the kind of experiment: Antagonism of substance-P induced relaxation of the pig coronary arteries. The assay is classed as cell-based. The conditions noted are these: concentration at which 50% of the response to 10^−9 M substance P was inhibited, 30 minutes incubation, prostaglandin F2a precontracted segments. The source says:
(§1) The compounds of the present invention are potent inhibitors of neurokinin-mediated effects, in particular those mediated via the NK1 receptor, and may therefore be described as tachykinin antagonists, especially as substance P antagonists, as indicated in vitro by the antagonism of substance P induced relaxation of pig coronary arteries which is described hereinafter. The binding affinity of the present compounds for the human, guinea-pig and gerbil neurokinin receptors may be determined in vitro in a receptor binding test using ^3H-substance-P as radioligand. The subject compounds also show substance-P antagonistic activity in vivo as may be evidenced by, for instance, the antagonism of substance P-induced plasma extravasation in guinea-pigs, or the antagonism of drug-induced emesis in ferrets (Watson et al., Br. J. Pharmacol. 115, 84-94, 1995).
Antagonism of substance-P induced relaxation of the pig coronary arteries
Segments of coronary artieries taken from pigs (killed by injection of an overdose of sodium pentobarbital) were inverted and mounted for recordign of isometric tension in organ baths (volume 20 ml) with the endothelium at the outside. The preparations were bathed in Krebs-Henseleit solution. The solution was kept at 37° C. and gassed with a mixture of O2/CO2 (95/5). After stabilisation of the preparations, prostaglandin F2a (10^−5 M) was administered to induce a contraction. This was repeated until contractivle responses became stable. Then prostaglandin F2a was again administered and substance P(3×10^−10 M and 10^−9 M cumulatively) was added. Substance P induced endothelium dependent relaxations. After washing away the agonists, a known concentratin of a compound of formula (I) was added. After an incubation period of 30 minutes, prostaglandin F2a ([…]) and the same concentrations of sbustance P as described above were again administered in the presence of the compound to be tested. Relaxations caused by substance P were expressed as relaxations under control conditions, and percent inhibition of the response to […] substance P was taken as a measure of the antagonistic activity of the compound to be tested. Table 6 lists the IC50 values (concentration at which 50% of the response to […] substance P was inhibited by the test compound) for the tested compounds.

Assay [2] concerns substance P induced plasma extravasation. As to the kind of experiment: Antagonism of substance P induced plasma extravasation in guinea-pigs. The assay is classed as in vivo. The conditions noted are these: lowest active dose, female guinea-pigs; for LAD nose: compound 1 hour prior to substance P (2 mg/kg, femoral artery), blue colouring of nose 10 minutes after challenge; for LAD conjunctiva / LAD forepaws / LAD trachea / LAD urinary bladder: compound 1 hour prior to substance P; for LAD conjunctiva: blue colouring of conjunctiva 10 minutes after challenge; for LAD forepaws: blue colouring of forepaws 10 minutes after challenge; for LAD trachea: blue colouring of trachea 30 minutes after challenge; for LAD urinary bladder: blue colouring of urinary bladder 30 minutes after challenge.
Source text: as §1
Antagonism of substance P induced plasma extravasation in guinea-pigs
Plasma extravasation was induced by injection of substance P (2 mg/kg) in the femoral artery of female guinea-pigs. Evans Blue dye (30 mg/kg) was injected simultaneously. The test compound or solvent was administered 1 hour prior to substance P injection. 10 minutes after challenge, the aminals were checked for blue colouring (a direct measure for plasma extravasation) of the nose, the forepaws, and the conjectiva. 30 minutes after challenge, the animals were sacrificed by CO2 gas inhalation and checked for blue colouring of the trachea and the urinary bladder. […]

As usually defined, the pIC50 is the IC50 on a negative log10 scale, so that one unit is a factor of ten. A low value points to a large IC50. Compound `O=C(c1cc(C(F)(F)F)cc(C(F)(F)F)c1)N1CCC(N2CCCN(Cc3ccccc3)CC2)CC1Cc1ccccc1` (racemic) [Compound 63] gave a pIC50 in assay [1] of 8.08.
Still for that read-out and setting: the same measure for `Cc1cccc(C)c1NC(=O)CN1CCCN(C2CCN(C(=O)c3cc(C(F)(F)F)cc(C(F)(F)F)c3)C(Cc3ccccc3)C2)CC1` (racemic) [Compound 65]: 8.19; for `O=C(c1cc(C(F)(F)F)cc(C(F)(F)F)c1)N1CCC(N2CCN(CC=Cc3ccccc3)CC2)CC1Cc1ccccc1` (centres unmarked) [Compound 29]: 9.35.
In assay [2], `Cc1cc(C)cc(C(=O)N2CCC(N3CCN(C(c4ccccc4)c4ccccc4)CC3)CC2Cc2ccccc2)c1` (racemic) [Compound 12] showed an LAD nose of more than 40.0 mg/kg, an LAD conjunctiva of more than 40.0 mg/kg, an LAD forepaws of more than 40.0 mg/kg and an LAD trachea of more than 40 mg/kg. Further, the LAD urinary bladder in assay [2] worked out at 40.0 mg/kg.
In assay [1] (Sus scrofa, 0.5 h), `CN(CC(CCN1CCN([C@H]2CCN(C(=O)c3cc(C(F)(F)F)cc(C(F)(F)F)c3)[C@@H](Cc3ccccc3)C2)CC1)c1ccc(Cl)c(Cl)c1)C(=O)c1ccccc1` (mixture of isomers) [Compound 93, (±)-cis-N-[4-[4-[1-[3,5-bis(trifluoromethyl)benzoyl]-2-(phenylmethyl)-4-piperidinyl]-1-piperazinyl]-2-(3,4-dichlorophenyl)butyl]-N-Methylbenzamide (E)-2-butenedioate (1:2)] gave a pIC50 of 8.30.
Regarding `CCn1nnn(CCN2CCN(C3CCN(C(=O)c4cc(C(F)(F)F)cc(C(F)(F)F)c4)C(Cc4ccccc4)C3)CC2)c1=O.O=C(O)C=CC(=O)O.O=C(O)C=CC(=O)O` (racemic) [Compound 96], in assay [2], the LAD nose turned out to be 10.0 mg/kg, the LAD conjunctiva is 10.0 mg/kg, the LAD forepaws is on record as 10.0 mg/kg and the LAD trachea was more than 40 mg/kg. This compound also showed an LAD urinary bladder in assay [2] of more than 40 mg/kg.
The compound `CC(C)NC(=O)CN1CCN(C2CCN(C(=O)c3cc(C(F)(F)F)cc(C(F)(F)F)c3)C(Cc3ccccc3)C2)CC1` (racemic) [Compound 76] gave a pIC50 in assay [1] of 7.85.
With `O=C(c1ccco1)N1CCN(C2CCN(C(=O)c3cc(C(F)(F)F)cc(C(F)(F)F)c3)C(Cc3ccccc3)C2)CC1` (centres unmarked) [Compound 21], in assay [2], the LAD nose was found to be 10.0 mg/kg, the LAD conjunctiva came out at 10.0 mg/kg, the LAD forepaws came out at 10.0 mg/kg and the LAD trachea is reported as more than 40 mg/kg. In assay [2], this compound had an LAD urinary bladder of 10.0 mg/kg.
The compound `Cc1cccc(C)c1NC(=O)CN1CCN(C2CCN(C(=O)c3cc(C(F)(F)F)cc(C(F)(F)F)c3)C(Cc3ccccc3)C2)CC1` (single isomer, unassigned) [Compound 124] gave a negative-log IC50 (pIC50) in assay [1] of 10.22.
`Cc1cccc2c1N(C(=O)CN1CCN(C3CCN(C(=O)c4cc(C(F)(F)F)cc(C(F)(F)F)c4)C(Cc4ccccc4)C3)CC1)CC2` (racemic) [Compound 104] had a pIC50 in assay [1] of 9.52.
Same read-out and setting: the same measure for `O=C(c1cc(C(F)(F)F)cc(C(F)(F)F)c1)N1CCC(N2CCN(CC=Cc3ccccc3)CC2)CC1Cc1ccccc1` (centres unmarked) [Compound 28]: 7.88.
In assay [1], `O=C(CN1CCN(C2CCN(C(=O)c3cc(C(F)(F)F)cc(C(F)(F)F)c3)C(Cc3ccccc3)C2)CC1)Nc1ccccc1` (centres unmarked) [Compound 37] showed a pIC50 of 8.02.
On the same count and under the same terms, the same measure for `CCOCCn1c(NC(=O)CN2CCN(C3CCN(C(=O)c4cc(C(F)(F)F)cc(C(F)(F)F)c4)C(Cc4ccccc4)C3)CC2)nc2ccccc21` (racemic) [Compound 69]: 8.80; for `CN(CC(CCN1CCN(C2CCN(C(=O)c3cc(C(F)(F)F)cc(C(F)(F)F)c3)C(Cc3ccccc3)C2)CC1)c1ccc(Cl)c(Cl)c1)C(=O)c1ccccc1` (racemic) [Compound 92]: 9.11.
With `O=C(c1cc(C(F)(F)F)cc(C(F)(F)F)c1)N1CCC(N2CCN(c3nc4ccccc4[nH]3)CC2)CC1Cc1ccccc1` (racemic) [Compound 40], in assay [2], the LAD nose came out at 10.0 mg/kg, the LAD conjunctiva is reported as 10.0 mg/kg, the LAD forepaws amounted to 10.0 mg/kg and the LAD trachea is on record as more than 40 mg/kg. In assay [2], this compound displayed an LAD urinary bladder of more than 40 mg/kg.
In assay [2], `Cc1ncc(Cn2c(N3CCN(C4CCN(C(=O)c5cc(C(F)(F)F)cc(C(F)(F)F)c5)C(Cc5ccccc5)C4)CC3)nc3ccccc32)o1` (centres unmarked) [Compound 23] yielded an LAD nose of 10.0 mg/kg, an LAD conjunctiva of 40.0 mg/kg, an LAD forepaws of 10.0 mg/kg and an LAD trachea of more than 40 mg/kg. The LAD urinary bladder in assay [2] is more than 40 mg/kg.
In assay [2], `Cc1cc(C)cc(NC(=O)CN2CCN(C3CCN(C(=O)c4cc(C(F)(F)F)cc(C(F)(F)F)c4)C(Cc4ccccc4)C3)CC2)c1` (racemic) [Compound 47] displayed an LAD nose of 40.0 mg/kg, an LAD conjunctiva of 40.0 mg/kg, an LAD forepaws of 40.0 mg/kg and an LAD trachea of more than 40 mg/kg. In addition, the LAD urinary bladder in assay [2] was more than 40 mg/kg.
For `CC(=O)NCC(c1ccccc1)N1CCN(C2CCN(C(=O)c3cc(C(F)(F)F)cc(C(F)(F)F)c3)C(Cc3ccccc3)C2)CC1` (racemic) [Compound 82], in assay [2], the LAD nose is given as 2.50 mg/kg, the LAD conjunctiva worked out at 2.50 mg/kg, the LAD forepaws is given as 2.50 mg/kg and the LAD trachea came out at 10.0 mg/kg. The compound also yielded an LAD urinary bladder in assay [2] of more than 40 mg/kg.
In assay [2], `CC(=O)NCC(c1ccccc1)N1CCN(C2CCN(C(=O)c3cc(C(F)(F)F)cc(C(F)(F)F)c3)C(Cc3ccccc3)C2)CC1` (racemic) [Compound 83] showed an LAD nose of 0.63 mg/kg, an LAD conjunctiva of 2.50 mg/kg, an LAD forepaws of 0.63 mg/kg and an LAD trachea of more than 40 mg/kg. The compound also returned an LAD urinary bladder in assay [2] of 0.63 mg/kg.
For the compound `Cc1cccc(C)c1NC(=O)CCN1CCN(C2CCN(C(=O)c3cc(C(F)(F)F)cc(C(F)(F)F)c3)C(Cc3ccccc3)C2)CC1.O=C(O)C=CC(=O)O.O=C(O)C=CC(=O)O` (racemic) [Compound 103], in assay [2], the LAD nose was determined as 2.50 mg/kg, the LAD conjunctiva turned out to be 2.50 mg/kg, the LAD forepaws is 2.50 mg/kg and the LAD trachea stood at 10.0 mg/kg. In assay [2], the LAD urinary bladder stood at 2.50 mg/kg.
On to `NC(=O)c1cc(Cl)c(NC(=O)CN2CCN([C@@H]3CCN(C(=O)c4cc(C(F)(F)F)cc(C(F)(F)F)c4)[C@@H](Cc4ccccc4)C3)CC2)c(Cl)c1` (racemic) [Compound 74], for which, in assay [2], the LAD nose came out at 10.0 mg/kg, the LAD conjunctiva is reported as 10.0 mg/kg, the LAD forepaws is 10.0 mg/kg and the LAD trachea is more than 40 mg/kg. The compound also displayed an LAD urinary bladder in assay [2] of more than 40 mg/kg.
As for `O=C(O)C=CC(=O)O.O=C(O)C=CC(=O)O.O=C(c1cc(C(F)(F)F)cc(C(F)(F)F)c1)N1CCC(N2CCN(CCc3ccccc3)CC2)CC1Cc1ccccc1` (racemic) [Compound 90], in assay [2], the LAD nose turned out to be 10.0 mg/kg, the LAD conjunctiva amounted to 10.0 mg/kg, the LAD forepaws is given as 10.0 mg/kg and the LAD trachea stood at 10.0 mg/kg. Also, the LAD urinary bladder in assay [2] is reported as more than 40 mg/kg.
In assay [2], `Cc1cc(C)cc(C(=O)N2CCC(N3CCN(CC=Cc4ccccc4)CC3)CC2Cc2ccccc2)c1` (centres unmarked) [Compound 8] had an LAD nose of 10.0 mg/kg, an LAD conjunctiva of 10.0 mg/kg, an LAD forepaws of 10.0 mg/kg and an LAD trachea of more than 40 mg/kg. This compound also displayed an LAD urinary bladder in assay [2] of more than 40 mg/kg.
